Three compounds from ChEMBL document CHEMBL2311537, “Antiviral activity of (+)-sattabacin against varicella zoster” (Bioorg Med Chem Lett, 2013) can be followed below.

Series [1] deals with MRC5. The experiment in a line: Effect on SLC20A2 gene expression in human MRC5 cells infected with Varicella zoster virus Ellen at 100 uM after 24 hrs by DNA microarray analysis. In kind it is functional.
Series [2] concerns MRC5. The series is described as follows: Effect on PSME1 gene expression in human MRC5 cells infected with Varicella zoster virus Ellen at 100 uM after 24 hrs by DNA microarray analysis. It is filed as functional.
Series [3] concerns Human alphaherpesvirus 3. The experiment in a line: Antiviral activity against Varicella zoster virus Ellen infected in human MRC5 cells assessed as inhibition of viral replication by viral reduction plaque assay. It is filed as functional, organism-based. As to conditions: Human alphaherpesvirus 3, Ellen.
Series [4] in a line: Antiviral coefficient, ratio of CC90 for human MRC5 cells to IC90 for Varicella zoster virus Ellen infected in human MRC5 cells. It is filed as functional.
Series [5] relates to MRC5. The series is described as follows: Effect on ADCY8 gene expression in human MRC5 cells infected with Varicella zoster virus Ellen at 100 uM after 24 hrs by DNA microarray analysis. In kind it is functional.
The subject of series [6] is MRC5. The series is described as follows: Effect on MT1M gene expression in human MRC5 cells infected with Varicella zoster virus Ellen at 100 uM after 24 hrs by DNA microarray analysis. It is filed as functional.
Series [7] relates to MRC5. The series is described as follows: Effect on DDX27 gene expression in human MRC5 cells infected with Varicella zoster virus Ellen at 100 uM after 24 hrs by DNA microarray analysis. It is filed as functional.
In series [8] the test system is MRC5. The series is described as follows: Effect on KRT5 gene expression in human MRC5 cells infected with Varicella zoster virus Ellen at 100 uM after 24 hrs by DNA microarray analysis. In kind it is functional.
Series [9] is described as follows: Cytotoxicity against human MRC5 cells assessed as inhibition of cell viability after 24 hrs by MTT assay. In kind it is cell-based. On the technique in general: Tetrazolium dyes change colour on reduction, which living cells bring about.
The test system of series [10] is MRC5. The series is described as follows: Effect on TPM2 gene expression in human MRC5 cells infected with Varicella zoster virus Ellen at 100 uM after 24 hrs by DNA microarray analysis. In kind it is functional.
Series [11] has as its system MRC5. The series is described as follows: Effect on ACVR1 gene expression in human MRC5 cells infected with Varicella zoster virus Ellen at 100 uM after 24 hrs by DNA microarray analysis. It is filed as functional.
Series [12] concerns MRC5. The experiment in a line: Effect on KCNS3 gene expression in human MRC5 cells infected with Varicella zoster virus Ellen at 100 uM after 24 hrs by DNA microarray analysis. It is filed as functional.
Series [13] has as its system MRC5. The series is described as follows: Effect on SNRPB gene expression in human MRC5 cells infected with Varicella zoster virus Ellen at 100 uM after 24 hrs by DNA microarray analysis. It is filed as functional.
The subject of series [14] is MRC5. The experiment in a line: Effect on ACTA1 gene expression in human MRC5 cells infected with Varicella zoster virus Ellen at 100 uM after 24 hrs by DNA microarray analysis. It is filed as functional.
The test system of series [15] is MRC5. The series is described as follows: Effect on CXCL1 gene expression in human MRC5 cells infected with Varicella zoster virus Ellen at 100 uM after 24 hrs by DNA microarray analysis. It is filed as functional.
The test system of series [16] is MRC5. The experiment in a line: Effect on RPL37A gene expression in human MRC5 cells infected with Varicella zoster virus Ellen at 100 uM after 24 hrs by DNA microarray analysis. It is filed as functional.
Series [17] has as its system MRC5. The series is described as follows: Effect on EIF2B1 gene expression in human MRC5 cells infected with Varicella zoster virus Ellen at 100 uM after 24 hrs by DNA microarray analysis. In kind it is functional.
In series [18] the test system is MRC5. The experiment in a line: Effect on MRPS18B gene expression in human MRC5 cells infected with Varicella zoster virus Ellen at 100 uM after 24 hrs by DNA microarray analysis. It is filed as functional.
A short description of series [19]: Antiviral coefficient, ratio of CC50 for human MRC5 cells to IC50 for Varicella zoster virus Ellen infected in human MRC5 cells. In kind it is functional.
The test system of series [20] is MRC5. The experiment in a line: Effect on ZMYND15 gene expression in human MRC5 cells infected with Varicella zoster virus Ellen at 100 uM after 24 hrs by DNA microarray analysis. In kind it is functional.
Series [21] relates to MRC5. The experiment in a line: Cytotoxicity against human MRC5 cells assessed as inhibition of cell viability at >1000 uM after 24 hrs by MTT assay. In kind it is cell-based. As to conditions: mrc5, 24 h.
In series [22] the test system is MRC5. The series is described as follows: Effect on RNF43 gene expression in human MRC5 cells infected with Varicella zoster virus Ellen at 100 uM after 24 hrs by DNA microarray analysis. It is filed as functional.
Series [23] relates to MRC5. The experiment in a line: Effect on CACNB4 gene expression in human MRC5 cells infected with Varicella zoster virus Ellen at 100 uM after 24 hrs by DNA microarray analysis. In kind it is functional.
Series [24] relates to MRC5. The series is described as follows: Effect on SAP18 gene expression in human MRC5 cells infected with Varicella zoster virus Ellen at 100 uM after 24 hrs by DNA microarray analysis. In kind it is functional.
The test system of series [25] is MRC5. The experiment in a line: Effect on CDC27 gene expression in human MRC5 cells infected with Varicella zoster virus Ellen at 100 uM after 24 hrs by DNA microarray analysis. It is filed as functional.

The term IC50 denotes the concentration that inhibits the measured activity by half. For orientation: IC90 means the concentration at which the effect reaches the 90% level. For orientation: CC50 means the concentration at which the toxic effect on the cells reaches its halfway point. In the case of `CC(C)CC(=O)[C@@H](O)Cc1ccccc1`, the “fold change (FC)” value in series [1] was 0.675; in series [2] it was 0.576; in [5] it was -1.328; in [6], -1.153; in series [7], 0.642; in [8], 0.566. In addition, the “fold change (FC)” value was -1.336 in [10]; -1.105 in [11]; 0.673 in series [12]; -1.193 in series [13]; 0.545 in [14]; 0.544 in [15]. Besides, the “fold change (FC)” value in series [16] was -1.282; in series [17], -1.402; in [18], -1.168; in [20] it was 0.577; in [22], -1.092; in series [23], 0.741. Besides, the “fold change (FC)” value is -1.128 in [24] and 0.823 in series [25]. In addition, the IC50 in series [3] is 58 µM. The IC90 in [3] came to 109 µM. In addition, the Ratio in series [4] came out at 35.6. Also, in series [9], the CC50 at 24 h was found to be 765 µM. Moreover, the CC90 at 24 h in series [9] is 3880 µM. Further, in series [19], the “Ratio CC50/IC50” value stood at 13.2. Also, in [21], the Activity result is “Toxic”.

For the compound `Nc1nc2c(ncn2COCCO)c(=O)[nH]1` [ACYCLOVIR], the IC50 in series [3] worked out at 13 µM.

On to `Nc1nc(O)c2ncn(CCC(CO)CO)c2n1` [PENCICLOVIR], for which the IC50 in [3] turned out to be 16 µM.
